The results in this text go back to ChEMBL document CHEMBL2176887, “Chemokine receptor antagonists” (J Med Chem, 2012).

The nature of data set [1]: Binding affinity to rat CCR1 by radioligand binding assay.
A short description of data set [2]: Half life in human. Format: ADME, organism-based. To be noted: in vivo.
Data set [3] concerns the target C-C chemokine receptor type 2 (Homo sapiens, UniProt P41597).
In data set [4] the target is T1, Muscarinic acetylcholine receptor M2 (Homo sapiens, UniProt P08172).
T1 sequence (P08172 whole entry): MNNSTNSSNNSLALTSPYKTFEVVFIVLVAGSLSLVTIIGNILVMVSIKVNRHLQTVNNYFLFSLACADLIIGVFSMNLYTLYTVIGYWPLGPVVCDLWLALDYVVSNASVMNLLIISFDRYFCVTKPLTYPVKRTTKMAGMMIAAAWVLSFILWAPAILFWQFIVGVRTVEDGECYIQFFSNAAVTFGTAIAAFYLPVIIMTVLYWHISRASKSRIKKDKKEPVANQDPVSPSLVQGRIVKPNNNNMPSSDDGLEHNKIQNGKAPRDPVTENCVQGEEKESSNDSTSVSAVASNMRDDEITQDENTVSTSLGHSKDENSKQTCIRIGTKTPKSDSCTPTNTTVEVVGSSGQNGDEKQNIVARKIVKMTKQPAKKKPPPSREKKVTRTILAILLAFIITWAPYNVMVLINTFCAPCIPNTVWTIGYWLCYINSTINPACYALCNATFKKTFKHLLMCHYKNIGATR
Description: Binding affinity to muscarinic M2 receptor

Another data set in a line: physchem. To be noted: octanol/water.
Data set [5] is described as follows: Oral bioavailability in rat. Format: ADME, organism-based. To be noted: in vivo.
A further data set is filed under the species Cavia porcellus. Kind of data set: Inhibition of CCL3-induced immune cell recruitment in guinea pig sensitization model. Format: functional, organism-based.
The nature of data set [6]: Half life in rat. Format: ADME, organism-based. To be noted: in vivo.
In data set [7] the target is T2, C-C chemokine receptor type 1 (Homo sapiens, UniProt P32246).
T2 sequence (P32246 whole entry): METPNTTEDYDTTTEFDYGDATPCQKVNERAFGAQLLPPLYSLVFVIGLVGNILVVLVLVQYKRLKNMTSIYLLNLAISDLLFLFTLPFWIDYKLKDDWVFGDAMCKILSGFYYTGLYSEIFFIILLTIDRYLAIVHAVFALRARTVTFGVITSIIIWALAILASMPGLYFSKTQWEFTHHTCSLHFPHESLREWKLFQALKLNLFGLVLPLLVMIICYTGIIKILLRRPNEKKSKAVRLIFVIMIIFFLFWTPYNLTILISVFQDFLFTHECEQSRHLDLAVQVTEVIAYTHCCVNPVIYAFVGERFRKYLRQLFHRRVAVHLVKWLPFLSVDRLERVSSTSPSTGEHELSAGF

For data set [8], the target named is C-C chemokine receptor type 5 (Homo sapiens, UniProt P51681).
Sequence of C-C chemokine receptor type 5 (P51681 whole entry): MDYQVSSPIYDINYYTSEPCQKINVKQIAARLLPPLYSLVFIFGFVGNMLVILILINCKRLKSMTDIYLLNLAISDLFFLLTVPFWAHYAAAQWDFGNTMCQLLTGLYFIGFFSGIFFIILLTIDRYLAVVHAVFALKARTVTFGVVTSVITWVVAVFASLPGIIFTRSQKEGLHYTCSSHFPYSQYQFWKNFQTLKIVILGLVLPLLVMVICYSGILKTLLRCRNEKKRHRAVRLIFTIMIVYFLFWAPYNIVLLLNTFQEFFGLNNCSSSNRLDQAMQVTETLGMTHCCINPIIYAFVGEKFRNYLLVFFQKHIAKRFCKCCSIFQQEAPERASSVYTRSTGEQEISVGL
Data set [9] is described as follows: Oral bioavailability in dog. Format: ADME, organism-based, Canis lupus familiaris. The conditions noted are these: in vivo.
In data set [10] the target is T2, C-C chemokine receptor type 1. Kind of data set: Antagonist activity at CCR1. Format: functional.

Sequence of C-C chemokine receptor type 2 (P41597 whole entry): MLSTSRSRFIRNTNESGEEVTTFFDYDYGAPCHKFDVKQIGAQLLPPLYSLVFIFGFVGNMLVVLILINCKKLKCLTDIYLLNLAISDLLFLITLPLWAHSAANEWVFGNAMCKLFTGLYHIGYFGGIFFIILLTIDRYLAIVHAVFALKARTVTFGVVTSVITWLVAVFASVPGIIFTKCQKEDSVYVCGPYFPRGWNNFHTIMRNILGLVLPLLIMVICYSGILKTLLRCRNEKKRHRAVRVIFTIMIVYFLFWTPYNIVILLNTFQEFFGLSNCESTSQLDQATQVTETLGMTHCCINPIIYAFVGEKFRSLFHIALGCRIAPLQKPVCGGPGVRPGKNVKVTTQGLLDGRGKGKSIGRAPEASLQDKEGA
Description for physchem: Lipophilicity, log P of the compound

`C[C@@H]1CN(Cc2ccc(F)cc2)CCN1C(=O)COc1ccc(Cl)cc1NC(N)=O` [BX 471 FREE BASE] showed a Kd in data set [1] of 121 nM. Besides, the half-life in data set [2] was 138 min.

In data set [3], `Cc1cnc(C(=O)c2ncnc3[nH]ccc23)c(NS(=O)(=O)c2ccc(Cl)c(C(F)(F)F)c2)c1` [ILACIRNON] yielded an IC50 of 5 nM.

Take `CC1(C)CN(CC/C=C2/c3cc(C(=O)O)ccc3OCc3ncccc32)C[C@H](c2ccc(Cl)cc2)[C@H]1O`: the inhibition constant Ki was 1.3 nM in data set [4], 2.3 nM in [7] and 1 nM in data set [8]. The molecule further returned a lipophilicity (logP) in “physchem” of 5.1. The bioavailability in data set [5] worked out at 35%; in data set [9], 100%. Also, the EC50 in the data set filed under Cavia porcellus is 0.03 mg/kg. Besides, in data set [6], the half-life was 180 min.

`CO[C@@H]1COCC[C@@H]1NC1CC[C@@](C(=O)N2CCc3ncc(C(F)(F)F)cc3C2)(C(C)C)C1` (some centres not stated): in data set [10], the half-inhibitory concentration (IC50) is 5 nM.
